Our source for the Activity and inhibition values is ChEMBL document CHEMBL5360646, “Optimization of M3 Antagonist-PDE4 Inhibitor (MAPI) Dual Pharmacology Molecules for the Treatment of COPD” (J Med Chem, 2023).

Series [1] deals with Rattus norvegicus. As to the kind of experiment: Anti-inflammatory activity against OVA-sensitized Brown-Norway rat airway inflammation model assessed as inhibition of OVA-induced eosinophil influx at 100 nmol/kg,IT(Intratracheal) pretreated 2 hrs prior to OVA challenge by automated cell counter analysis. The format is functional. More on the design: scale not given: the % may be the effect or the level left.

Series [2] deals with Rattus norvegicus. In words: Anti-inflammatory activity against OVA-sensitized Brown-Norway rat airway inflammation model assessed as inhibition of OVA-induced eosinophil influx at 1000 nmol/kg,IT(Intratracheal) pretreated 24 hrs prior to OVA challenge and measured after 48 hrs by automated cell counter analysis. Type of series: functional. More on the design: scale not given: the % may be the effect or the level left. Particulars: time 72 hrs.

Series [3] is described as follows: Toxicity in ferret assessed as emetic response at 10 nmol/kg, IT(Intratracheal) and measured for 4 hrs by behavioral analysis. More on the design: species or system Mustela putorius furo. Particulars: in vivo, inhaled_or_intranasal.
Series [4] is described as follows: Toxicity in ferret assessed as emetic response at 10 nmol/kg,po and measured for 4 hrs by behavioral analysis. Particulars: in vivo. Details: species or system Mustela putorius furo.
Series [5] can be described thus: Toxicity in ferret assessed as appearance of nausea-like behavior at 10 nmol/kg, IT(Intratracheal) and measured for 4 hrs by behavioral analysis. More on the design: species or system Mustela putorius furo. Conditions: in vivo, inhaled_or_intranasal.
A short description of series [6]: Toxicity in ferret assessed as appearance of nausea-like behavior at 10 nmol/kg,po and measured for 4 hrs by behavioral analysis. Details: species or system Mustela putorius furo. Particulars: in vivo.
A short description of series [7]: Toxicity in pilocarpine hydrochloride induced salivation Sprague-Dawley rat model assessed as inhibition of salivary secretion at 3 mM,INH for 10 mins. Particulars: Sprague-Dawley, in vivo, inhaled or intranasal, read-out: Activity.

Consider `C[C@@H]1C[C@H]2[C@@H]3C[C@H](F)C4=CC(=O)C=C[C@]4(C)[C@@]3(F)[C@@H](O)C[C@]2(C)[C@@]1(OC(=O)c1ccco1)C(=O)SCF` [FLUTICASONE FUROATE], for which the Activity in series [1] and in series [2] was above 100% each time.

For the compound `O=C(Nc1c(Cl)cncc1Cl)c1ccc(OC(F)F)c(OCC2CC2)c1` [ROFLUMILAST], the Activity entry in series [3], in series [4], in series [5] and in series [6] was “Toxic” in each case.

For the compound `C[N+]1(C)[C@@H]2C[C@@H](OC(=O)C(O)(c3cccs3)c3cccs3)C[C@H]1[C@@H]1O[C@@H]12` [TIOTROPIUM], in series [7], the inhibition at 10 min, 3000 µM stood at 62%.
